ChEMBL document CHEMBL3608262, “Lepidotol A from Mesua lepidota Inhibits Inflammatory and Immune Mediators in Human Endothelial Cells” (J Nat Prod, 2015)
Converted amounts (≈) assume the structure as drawn. The source made the active and inactive calls. No cut-off for these calls is given here.

Key:
[1] = system: HUVEC; experiment: Antiinflammatory activity in HUVEC assessed as inhibition of TNFalpha-induced VCAM1 expression after 1 hr by flow cytometry analysis; type: functional, cell-based; conditions: Homo sapiens
[2] = system: HUVEC; experiment: Antiinflammatory activity in HUVEC assessed as inhibition of HLA-I expression at 10 uM after 1 hr by flow cytometry analysis; type: functional, cell-based; conditions: Homo sapiens
[3] = system: HUVEC; experiment: Induction of ICAM1 expression in HUVEC after 1 hr by flow cytometry analysis; type: cell-based; conditions: human
[4] = system: HUVEC; experiment: Induction of E-selectin expression in HUVEC after 1 hr by flow cytometry analysis; type: cell-based; conditions: human
[5] = system: HUVEC; experiment: Antiinflammatory activity in HUVEC assessed as inhibition of IFNgamma-induced HLA-II expression at 10 uM after 1 hr by flow cytometry analysis; type: functional; conditions: Homo sapiens
[6] = system: HUVEC; experiment: Antiinflammatory activity in HUVEC assessed as inhibition of MICA expression at 10 uM after 1 hr by flow cytometry analysis; type: functional, cell-based; conditions: Homo sapiens
[7] = system: HUVEC; experiment: Antiinflammatory activity in HUVEC assessed as inhibition of TNFalpha-induced ICAM1 expression at 10 uM after 1 hr by flow cytometry analysis; type: functional; conditions: Homo sapiens
[8] = system: HUVEC; experiment: Induction of VCAM1 expression in HUVEC after 1 hr by ELISA; type: cell-based; conditions: human
[9] = system: HUVEC; experiment: Antiinflammatory activity in HUVEC assessed as inhibition of HLA-E expression at 10 uM after 1 hr by flow cytometry analysis; type: functional, cell-based; conditions: Homo sapiens
[10] = system: HUVEC; experiment: Antiinflammatory activity in HUVEC assessed as inhibition of TNFalpha-induced E-selectin expression at 10 uM after 1 hr by flow cytometry analysis; type: functional, cell-based; conditions: Homo sapiens
[11] = system: HUVEC; experiment: Cytotoxicity against TNFalpha-stimulated HUVEC at 10 uM after 6 hrs by MTT assay; type: cell-based; conditions: human
[12] = system: HUVEC; experiment: Antiinflammatory activity in HUVEC assessed as inhibition of IFNgamma-induced HLA-E expression at 10 uM after 1 hr by flow cytometry analysis; type: functional; conditions: Homo sapiens
[13] = system: HUVEC; experiment: Antiinflammatory activity in HUVEC assessed as inhibition of TNFalpha-induced VCAM1 expression at 10 uM after 1 hr by flow cytometry analysis; type: functional; conditions: Homo sapiens
[14] = Inhibition of vesperlysine-type advanced glycation end products formation using bovine serum albumin after 24 hrs by microtiter plate assay; type: functional
[15] = Inhibition of pentosidine-type advanced glycation end products formation using bovine serum albumin after 24 hrs by microtiter plate assay; type: functional

| SMILES | IC50 [1] | inhibition [2] | Activity [3] | Activity [4] | inhibition at 10 µM [5] | inhibition [6] | inhibition at 10 µM [7] | Activity [8] | inhibition [9] | inhibition [10] | Activity [11] | inhibition at 10 µM [12] | inhibition at 10 µM [13] | IC50 [14] | IC50 [15] |
| --- | --- | --- | --- | --- | --- | --- | --- | --- | --- | --- | --- | --- | --- | --- | --- |
| CC(C)=CCC1(CC=C(C)C)C(=O)c2c(-c3ccccc3)cc(=O)oc2C(C(=O)C(C)C)=C1O | 10.2 µM | inactive | Non-toxic | Non-toxic | ≤ 95% | Active | ≤ 23% | Non-toxic | Active | inactive | Non-toxic | ≤ 95% | ≤ 52% |  |  |
| N=C(N)NN [PIMAGEDINE] |  |  |  |  |  |  |  |  |  |  |  |  |  | 700 µg/mL (≈ 9.45 mM) | 150 µg/mL (≈ 2.02 mM) |
